Seven compounds from patent US12139520B2 (priority 2020, dated 2024) can be followed below.

A short description of series [1]: Physical stability of peptide analogues (Thioflavin T fibrillation). The class given is physicochemical. Conditions: maximum ThT signal normalized between hAMY maximum and buffer background; 40° C., shaking, four days; pH 7 per table title. An outline of the steps: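 Samples are stressed at 40 °C for four days, being shaken at 700 rpm before each 10-min fluorescence reading of 4 μM Thioflavin T. Buffers were pH 4 acetate or pH 7 phosphate. Reported values are smoothed maximum ThT signals as a percentage of the hAMY-to-background range.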

For another series, the target named is hAM1 receptor (Homo sapiens, UniProt O60895+Q16602). The experiment in a line: cAMP assay for in vitro receptor activation, hAM1-R. The class given is cell-based. Conditions: cAMP assay, hAM1 receptor; read-out: hAM1R EC50. In short, it runs like this:
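Read-out is intracellular cAMP as a measure of receptor activation. Cells stably overexpressing hAM1 were subcloned to a monoclonal line, then thawed and seeded at 8000 cells/well in DPBS with 0.05% casein and the phosphodiesterase inhibitor IBMX at 0.5 mM.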

Structures are written as SMILES. Bridge positions count the residues as written; N and C are the ends. Square brackets hold non-standard residues; d marks the D form. Peptide text beside a SMILES is read from it. Hyp = O=C(O)[C@@H]1C[C@@H](O)CN1; Cit = NC(=O)NCCC[C@H](N)C(=O)O

Sequence of hAM1 receptor (Q16602 23-461): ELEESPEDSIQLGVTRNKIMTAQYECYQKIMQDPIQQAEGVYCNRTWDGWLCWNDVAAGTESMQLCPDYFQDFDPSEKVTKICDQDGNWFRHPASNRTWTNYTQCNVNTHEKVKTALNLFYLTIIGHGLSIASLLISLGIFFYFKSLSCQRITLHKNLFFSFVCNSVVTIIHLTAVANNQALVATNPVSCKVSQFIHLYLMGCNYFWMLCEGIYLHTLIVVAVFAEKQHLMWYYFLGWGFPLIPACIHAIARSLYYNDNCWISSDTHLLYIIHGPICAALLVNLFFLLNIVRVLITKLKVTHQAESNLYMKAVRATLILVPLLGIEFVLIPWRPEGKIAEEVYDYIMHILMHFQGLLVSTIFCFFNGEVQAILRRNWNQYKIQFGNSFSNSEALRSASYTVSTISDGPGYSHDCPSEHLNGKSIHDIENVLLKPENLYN
Sequence of hAM1 receptor (O60895 43-175 partner): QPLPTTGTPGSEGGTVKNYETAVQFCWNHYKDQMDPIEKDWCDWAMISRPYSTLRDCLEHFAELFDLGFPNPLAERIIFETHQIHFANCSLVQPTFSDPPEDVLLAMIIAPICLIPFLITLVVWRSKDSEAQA

As a reminder, the EC50 is the concentration giving half of the maximal effect. Consider `CC[C@H](C)[C@H](NC(=O)[C@H](CCC(N)=O)NC(=O)[C@H](Cc1c[nH]cn1)NC(=O)[C@H](C)NC(=O)[C@H](CC(C)C)NC(=O)[C@H](CCCNC(N)=O)NC(=O)[C@H](CCC(N)=O)NC(=O)[C@@H](NC(=O)[C@@H](NC(=O)[C@@H]1CSSC[C@H](NC(=O)CN)C(=O)N[C@@H](CCCNC(=N)N)C(=O)N[C@@H]([C@@H](C)O)C(=O)NCC(=O)N[C@@H]([C@@H](C)O)C(=O)N1)[C@@H](C)O)C(C)C)C(=O)N[C@@H](Cc1ccc(O)cc1)C(=O)N[C@@H](CCC(N)=O)C(=O)N[C@@H](Cc1ccccc1)C(=O)N[C@H](C(=O)N[C@@H](CC(=O)O)C(=O)N[C@@H](CCCCN)C(=O)N[C@@H](CC(=O)O)C(=O)N[C@@H](CCCCN)C(=O)N[C@@H](CC(=O)O)C(=O)N[C@@H](CC(N)=O)C(=O)N[C@H](C(=O)N[C@@H](C)C(=O)N1CCC[C@H]1C(=O)N[C@@H](CCCNC(=N)N)C(=O)N[C@H](C(=O)N[C@@H](CCCCN)C(=O)N[C@H](C(=O)NCC(=O)N1CCC[C@H]1C(=O)N[C@@H](CCC(N)=O)C(=O)NCC(=O)N1C[C@H](O)C[C@H]1C(N)=O)C(C)C)[C@@H](C)O)C(C)C)[C@@H](C)O` [compound 292] (H-GCRTGTCTVQ[Cit]LAHQIYQFTDKDKDNVAPRTKVGPQG[Hyp]-NH2; disulfide 2-7; N-terminus assumed), for which the “Max ThT signal (%)” value in series [1] amounted to 19.700%. At hAM1 receptor, the EC50 was above 5 µM.
The corresponding values for `CC[C@H](C)[C@@H]1NC(=O)[C@H](CCCNC(=N)N)NC(=O)[C@@H](NC(=O)CN)CSSC[C@@H](C(=O)N[C@H](C(=O)N[C@H](C(=O)N[C@@H](CCC(N)=O)C(=O)N[C@@H](CCCNC(N)=O)C(=O)N[C@@H](CC(C)C)C(=O)N[C@@H](C)C(=O)N[C@@H](Cc2c[nH]cn2)C(=O)N[C@@H](CCC(N)=O)C(=O)N[C@H](C(=O)N[C@@H](Cc2ccc(O)cc2)C(=O)N[C@@H](CCC(N)=O)C(=O)N[C@@H](Cc2ccccc2)C(=O)N[C@H](C(=O)N[C@@H](CC(=O)O)C(=O)N[C@@H](CCCCN)C(=O)N[C@@H](Cc2ccccc2)C(=O)N[C@@H](CCCCN)C(=O)N[C@@H](CC(=O)O)C(=O)N[C@@H](CC(N)=O)C(=O)N[C@H](C(=O)N[C@@H](C)C(=O)N2CCC[C@H]2C(=O)N[C@@H](CCCNC(=N)N)C(=O)N[C@@H](CO)C(=O)N[C@@H](CCCCN)C(=O)N[C@H](C(=O)N[C@@H](CO)C(=O)N2CCC[C@H]2C(=O)N[C@@H](CCC(N)=O)C(=O)N[C@H](C(=O)N2C[C@H](O)C[C@H]2C(N)=O)[C@@H](C)O)[C@@H](C)CC)C(C)C)[C@@H](C)O)[C@@H](C)CC)C(C)C)[C@@H](C)O)NC(=O)[C@H]([C@@H](C)O)NC(=O)CNC1=O` [compound 295] (H-GCRIGTCTVQ[Cit]LAHQIYQFTDKFKDNVAPRSKISPQT[Hyp]-NH2; disulfide 2-7; N-terminus assumed) are 19.450% and above 5 µM.
The corresponding values for `CC[C@H](C)[C@H](NC(=O)[C@H](CCC(N)=O)NC(=O)[C@H](Cc1c[nH]cn1)NC(=O)[C@H](C)NC(=O)[C@H](CC(C)C)NC(=O)[C@H](CCCNC(N)=O)NC(=O)[C@H](CCC(N)=O)NC(=O)[C@@H](NC(=O)[C@@H](NC(=O)[C@@H]1CSSC[C@H](NC(=O)CN)C(=O)N[C@@H](CCCNC(=N)N)C(=O)N[C@@H](Cc2c[nH]c3ccccc23)C(=O)NCC(=O)N[C@@H]([C@@H](C)O)C(=O)N1)[C@@H](C)O)C(C)C)C(=O)N[C@@H](Cc1ccc(O)cc1)C(=O)N[C@@H](CCC(N)=O)C(=O)N[C@@H](Cc1ccccc1)C(=O)N[C@H](C(=O)N[C@@H](CC(=O)O)C(=O)N[C@@H](CCCCN)C(=O)N[C@@H](CC(=O)O)C(=O)N[C@@H](CCCCN)C(=O)N[C@@H](CC(=O)O)C(=O)N[C@@H](CC(N)=O)C(=O)N[C@H](C(=O)N[C@@H](C)C(=O)N1CCC[C@H]1C(=O)N[C@@H](CCCNC(=N)N)C(=O)N[C@@H](CO)C(=O)N[C@@H](CCCCN)C(=O)N[C@H](C(=O)N[C@@H](CO)C(=O)N1CCC[C@H]1C(=O)N[C@@H](CCC(N)=O)C(=O)N[C@H](C(=O)N1C[C@H](O)C[C@H]1C(N)=O)[C@@H](C)O)[C@@H](C)CC)C(C)C)[C@@H](C)O` [compound 296] (H-GCRWGTCTVQ[Cit]LAHQIYQFTDKDKDNVAPRSKISPQT[Hyp]-NH2; disulfide 2-7; N-terminus assumed) are 26.050% and above 5 µM.
The corresponding values for `CC[C@H](C)[C@H](NC(=O)[C@H](CCC(N)=O)NC(=O)[C@H](Cc1c[nH]cn1)NC(=O)[C@H](C)NC(=O)[C@H](CC(C)C)NC(=O)[C@H](CCCNC(N)=O)NC(=O)[C@H](CCC(N)=O)NC(=O)[C@@H](NC(=O)[C@@H](NC(=O)[C@@H]1CSSC[C@H](NC(=O)CN)C(=O)N[C@@H](CCCNC(=N)N)C(=O)N[C@@H]([C@@H](C)O)C(=O)NCC(=O)N[C@@H]([C@@H](C)O)C(=O)N1)[C@@H](C)O)C(C)C)C(=O)N[C@@H](Cc1ccc(O)cc1)C(=O)N[C@@H](CCC(N)=O)C(=O)N[C@@H](Cc1ccccc1)C(=O)N[C@H](C(=O)N[C@@H](CC(=O)O)C(=O)N[C@@H](CCCCN)C(=O)N[C@@H](CC(=O)O)C(=O)N[C@@H](CCCCN)C(=O)N[C@@H](CC(=O)O)C(=O)N[C@@H](CC(N)=O)C(=O)N[C@H](C(=O)N[C@@H](C)C(=O)N1CCC[C@H]1C(=O)N[C@@H](CCCNC(=N)N)C(=O)N[C@H](C(=O)N[C@@H](CCCCN)C(=O)N[C@H](C(=O)NCC(=O)N1CCC[C@H]1C(=O)N[C@@H](CCC(N)=O)C(=O)NCC(=O)N[C@@H](Cc1ccc(O)cc1)C(N)=O)C(C)C)[C@@H](C)O)C(C)C)[C@@H](C)O` [compound 298] (H-GCRTGTCTVQ[Cit]LAHQIYQFTDKDKDNVAPRTKVGPQGY-NH2; disulfide 2-7; N-terminus assumed) are 31.250% and above 5 µM.
For the compound `CC[C@H](C)[C@H](NC(=O)[C@H](CCCCN)NC(=O)[C@H](CO)NC(=O)[C@H](CCCNC(=N)N)NC(=O)[C@@H]1CCCN1C(=O)[C@H](C)NC(=O)[C@@H](NC(=O)[C@H](CC(N)=O)NC(=O)[C@H](CC(=O)O)NC(=O)[C@H](CCCCN)NC(=O)[C@H](CC(=O)O)NC(=O)[C@H](CCCCN)NC(=O)[C@H](CC(=O)O)NC(=O)[C@@H](NC(=O)[C@H](Cc1ccccc1)NC(=O)[C@H](CCC(N)=O)NC(=O)[C@H](Cc1ccc(O)cc1)NC(=O)[C@@H](NC(=O)[C@H](CCC(N)=O)NC(=O)[C@H](Cc1c[nH]cn1)NC(=O)[C@H](C)NC(=O)[C@H](CC(C)C)NC(=O)[C@H](CCCNC(N)=O)NC(=O)[C@H](CCC(N)=O)NC(=O)[C@@H](NC(=O)[C@@H](NC(=O)[C@@H]1CSSC[C@H](NC(=O)CN)C(=O)N[C@@H](CCCNC(=N)N)C(=O)N[C@@H]([C@@H](C)O)C(=O)NCC(=O)N[C@@H]([C@@H](C)O)C(=O)N1)[C@@H](C)O)C(C)C)[C@@H](C)CC)[C@@H](C)O)C(C)C)C(=O)NCC(=O)N1CCC[C@H]1C(=O)N[C@@H](CC(N)=O)C(=O)NCC(=O)N1C[C@H](O)C[C@H]1C(N)=O` [compound 299] (H-GCRTGTCTVQ[Cit]LAHQIYQFTDKDKDNVAPRSKIGPNG[Hyp]-NH2; disulfide 2-7; N-terminus assumed), the “Max ThT signal (%)” value in series [1] is 26.550%. For the same compound, the EC50 on hAM1 receptor is above 5 µM.
On to `CC[C@H](C)[C@H](NC(=O)[C@H](CCCCN)NC(=O)[C@@H](NC(=O)[C@H](CCCNC(=N)N)NC(=O)[C@@H]1CCCN1C(=O)[C@H](C)NC(=O)[C@@H](NC(=O)[C@H](CC(N)=O)NC(=O)[C@H](CC(=O)O)NC(=O)[C@H](CCCCN)NC(=O)[C@H](CC(=O)O)NC(=O)[C@H](CCCCN)NC(=O)[C@H](CC(=O)O)NC(=O)[C@@H](NC(=O)[C@H](Cc1ccccc1)NC(=O)[C@H](CCC(N)=O)NC(=O)[C@H](Cc1ccc(O)cc1)NC(=O)[C@@H](NC(=O)[C@H](CCC(N)=O)NC(=O)[C@H](Cc1c[nH]cn1)NC(=O)[C@H](C)NC(=O)[C@H](CC(C)C)NC(=O)[C@H](CCCNC(N)=O)NC(=O)[C@H](CCC(N)=O)NC(=O)[C@@H](NC(=O)[C@@H](NC(=O)[C@@H]1CSSC[C@H](NC(=O)CN)C(=O)N[C@@H](CCCNC(=N)N)C(=O)N[C@@H]([C@@H](C)O)C(=O)NCC(=O)N[C@@H]([C@@H](C)O)C(=O)N1)[C@@H](C)O)C(C)C)[C@@H](C)CC)[C@@H](C)O)C(C)C)[C@@H](C)O)C(=O)NCC(=O)N1CCC[C@H]1C(=O)N[C@@H](CCC(N)=O)C(=O)NCC(=O)N1C[C@H](O)C[C@H]1C(N)=O` [compound 301] (H-GCRTGTCTVQ[Cit]LAHQIYQFTDKDKDNVAPRTKIGPQG[Hyp]-NH2; disulfide 2-7; N-terminus assumed), for which the “Max ThT signal (%)” value in series [1] was determined as 16.950%. The EC50 at hAM1 receptor is above 5 µM.
The corresponding values for `CC[C@H](C)[C@H](NC(=O)[C@H](CC(N)=O)NC(=O)[C@H](CO)NC(=O)[C@H](CCCNC(=N)N)NC(=O)[C@@H]1CCCN1C(=O)[C@H](C)NC(=O)[C@@H](NC(=O)[C@H](CC(N)=O)NC(=O)[C@H](CC(=O)O)NC(=O)[C@H](CCCCN)NC(=O)[C@H](CC(=O)O)NC(=O)[C@H](CCCCN)NC(=O)[C@H](CC(=O)O)NC(=O)[C@@H](NC(=O)[C@H](Cc1ccccc1)NC(=O)[C@H](CCC(N)=O)NC(=O)[C@H](Cc1ccc(O)cc1)NC(=O)[C@@H](NC(=O)[C@H](CCC(N)=O)NC(=O)[C@H](Cc1c[nH]cn1)NC(=O)[C@H](C)NC(=O)[C@H](CC(C)C)NC(=O)[C@H](CCCNC(N)=O)NC(=O)[C@H](CCC(N)=O)NC(=O)[C@@H](NC(=O)[C@@H](NC(=O)[C@@H]1CSSC[C@H](NC(=O)CN)C(=O)N[C@@H](CCCNC(=N)N)C(=O)N[C@@H]([C@@H](C)O)C(=O)NCC(=O)N[C@@H]([C@@H](C)O)C(=O)N1)[C@@H](C)O)C(C)C)[C@@H](C)CC)[C@@H](C)O)C(C)C)C(=O)NCC(=O)N1CCC[C@H]1C(=O)N[C@@H](CCC(N)=O)C(=O)NCC(=O)N1C[C@H](O)C[C@H]1C(N)=O` [compound 303] (H-GCRTGTCTVQ[Cit]LAHQIYQFTDKDKDNVAPRSNIGPQG[Hyp]-NH2; disulfide 2-7) are 18.150% and above 5 µM.
